Some results are limits rather than exact numbers.

Usually IC50 stands for the concentration that gives 50% inhibition.

The target of the assay is truncated form of human NaV 1.8 with full channel activity (expressed in HEK cells) (Homo sapiens, UniProt Q9Y5Y9). Nature of the assay: E-VIPR assay detecting and measuring NaV inhibition properties (electrical stimulation, membrane potential FRET dyes). The assay is classed as cell-based. The conditions noted are these: HEK cells expressing truncated human NaV 1.8, KIR2.1 BacMam; 11-point dose response; 30 min compound incubation; stimulation 10 Hz for 10 s; read-out: measured IC50 value in the E-VIPR Assay. The source says: E-VIPR Assay Detecting and Measuring NaV Inhibition Properties
truncated form of human NaV 1.8 with full channel activity (expressed in HEK cells), sequence (Q9Y5Y9 126-1722 limits assumed): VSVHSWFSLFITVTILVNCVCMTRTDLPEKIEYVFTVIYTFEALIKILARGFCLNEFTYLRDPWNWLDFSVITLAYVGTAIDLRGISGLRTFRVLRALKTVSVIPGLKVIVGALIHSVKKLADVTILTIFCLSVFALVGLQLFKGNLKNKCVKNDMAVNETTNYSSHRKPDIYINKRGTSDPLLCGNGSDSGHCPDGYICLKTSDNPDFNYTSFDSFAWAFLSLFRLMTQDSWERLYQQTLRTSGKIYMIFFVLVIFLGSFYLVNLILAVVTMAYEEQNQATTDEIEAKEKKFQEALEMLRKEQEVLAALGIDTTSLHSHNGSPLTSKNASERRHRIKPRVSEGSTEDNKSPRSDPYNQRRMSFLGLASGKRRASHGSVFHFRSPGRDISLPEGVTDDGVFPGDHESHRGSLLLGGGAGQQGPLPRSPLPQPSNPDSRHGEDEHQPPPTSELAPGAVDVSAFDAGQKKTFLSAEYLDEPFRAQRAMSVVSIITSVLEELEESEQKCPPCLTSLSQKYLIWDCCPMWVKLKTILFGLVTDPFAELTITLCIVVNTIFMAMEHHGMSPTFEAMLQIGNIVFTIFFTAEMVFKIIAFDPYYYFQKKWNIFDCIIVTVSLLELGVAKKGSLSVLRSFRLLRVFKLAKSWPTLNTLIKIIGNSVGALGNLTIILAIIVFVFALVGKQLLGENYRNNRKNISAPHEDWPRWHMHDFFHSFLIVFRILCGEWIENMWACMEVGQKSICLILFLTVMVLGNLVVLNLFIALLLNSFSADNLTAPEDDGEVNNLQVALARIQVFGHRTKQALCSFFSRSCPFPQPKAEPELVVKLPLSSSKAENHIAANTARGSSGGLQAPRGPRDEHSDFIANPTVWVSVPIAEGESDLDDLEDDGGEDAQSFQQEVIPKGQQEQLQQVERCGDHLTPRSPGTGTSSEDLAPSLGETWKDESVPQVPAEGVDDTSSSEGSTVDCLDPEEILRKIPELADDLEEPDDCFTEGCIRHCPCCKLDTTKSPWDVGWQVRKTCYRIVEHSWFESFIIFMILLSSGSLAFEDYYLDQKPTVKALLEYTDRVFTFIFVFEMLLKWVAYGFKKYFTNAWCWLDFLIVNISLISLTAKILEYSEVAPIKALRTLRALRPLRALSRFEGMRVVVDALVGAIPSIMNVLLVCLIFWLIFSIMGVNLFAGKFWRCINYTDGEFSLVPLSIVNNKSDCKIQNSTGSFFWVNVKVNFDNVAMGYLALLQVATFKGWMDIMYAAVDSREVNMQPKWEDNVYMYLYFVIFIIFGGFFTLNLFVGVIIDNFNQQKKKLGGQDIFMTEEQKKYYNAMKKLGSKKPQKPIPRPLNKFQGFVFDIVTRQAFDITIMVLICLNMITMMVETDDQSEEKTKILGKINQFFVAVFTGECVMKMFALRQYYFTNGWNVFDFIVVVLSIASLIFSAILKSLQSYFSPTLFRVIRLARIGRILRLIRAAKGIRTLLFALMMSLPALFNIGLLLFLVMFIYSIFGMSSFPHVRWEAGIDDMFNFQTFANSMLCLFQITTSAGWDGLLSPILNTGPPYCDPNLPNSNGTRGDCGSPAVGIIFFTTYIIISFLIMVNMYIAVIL
Sodium ion channels are voltage-dependent proteins that can be activated by inducing membrane voltage changes by applying electric fields. […] The instrument comprises a microtiter plate handler, an optical system for exciting the coumarin dye while simultaneously recording the coumarin and oxonol emissions, a waveform generator, a current- or voltage-controlled amplifier, and parallel electrode pairs that are inserted into assay plate wells. Under integrated computer control, this instrument passes user-programmed electrical stimulus protocols to cells within the wells of the microtiter plate.
16-20 hours prior to running the assay on E-VIPR, HEK cells expressing a truncated form of human NaV 1.8 with full channel activity were seeded into microtiter 384-well plates, pre-coated with matrigel, at a density of 25,000 cells per well. 2.5-5% KIR2.1 BacMam virus was added to the final cell suspension before seeding into cell plates. […] Cells were expanded in 5-layer CellSTACK culture chambers or cell culture flasks with vented caps, with 90-95% humidity and 5% CO2.
Reagents and Stock Solutions:
The concentration used can be dependent on viral titer of each batch.
Human Serum (HS, Millipore #S1P1-01KL, or Sigma SLBR5469V and SLBR5470V as a 50%/50% mixture, for 25% assay final concentration)
Hexyl Dye Solution (2× Concentration):
Bath 1 Buffer containing 0.5% β-cyclodextrin (made fresh prior to each use, Sigma #C4767), 8 μM CC2-DMPE and 2 μM DiSBAC6(3). The solution was made by adding 10% Pluronic F127 stock equal to combined volumes of CC2-DMPE and DiSBAC6(3). The order of preparation was first mix Pluronic and CC2-DMPE, then add DiSBAC6(3), then while vortexing add Bath 1/β-Cyclodextrin.
Assay Protocol (7 Key Steps):
The compound plate was backfilled with 45 μL per well of Compound Loading Buffer resulting in a 240-fold dilution of compound following a 1:1 transfer of compound into the cell plate (see Step 6). […] This assay dilution protocol was adjusted to enable a higher dose range to be tested in the presence of HS or if the final assay volume was altered. • 2) Hexyl Dye Solution was prepared. • 3) Cell plates were prepared. On the day of the assay, the media was aspirated, and the cells were washed three times with 80 μL of Bath-1 buffer, maintaining 25 μL residual volume in each well. • 4) 25 μL per well of Hexyl Dye Solution was dispensed into the cell plates. The cells were incubated for 20 minutes at room temperature or ambient conditions in darkness. • 5) 45 μL per well of Compound Loading Buffer was dispensed into compound plates. • 6) The cell plates were washed three times with 80 μL per well of Bath-1 Buffer, leaving […] of residual volume. Then 25 μL per well from compound plate was transferred to each cell plate. The mixture was incubated for 30 minutes at room temperature/ambient conditions. • 7) The cell plate containing compound was read on E-VIPR using the current-controlled amplifier to deliver stimulation wave pulses using a symmetrical biphasic waveform. […] A pre-stimulus recording was performed for each well for 0.5 seconds to obtain the un-stimulated intensities baseline. The stimulatory waveform was followed by 0.5 seconds of post-stimulation recording to examine the relaxation to the resting state. All E-VIPR responses were measured at 200 Hz acquisition rate. Data Analysis:
The response as a function of time was reported as the ratios obtained using the following formula: […]
The data were normalized by calculating the initial (Ri) and final (Rf) ratios. These were the average ratio values during part or all of the pre-stimulation period and during sample points during the stimulation period. The fluorescence ratio (Rf/Ri) was then calculated and reported as a function of time.
Control responses were obtained by performing assays in the presence of the positive control, and in the absence of pharmacological agents (DMSO vehicle negative control).
Turning to `COc1cc(F)ccc1Oc1cc(C(C)(C)C)cc(C)c1-c1[nH]c2ccccc2c(=O)c1Cl` (single isomer, unassigned) [Compound 312, 2-[4-tert-butyl-2-(4-fluoro-2-methoxy-phenoxy)-6-methyl-phenyl]-3-chloro-1H-quinolin-4-one], the IC50 lay in the range of 500 to 2000 nM. As to `COc1cc(F)ccc1Oc1cc(C(C)(C)C)cc(C)c1-c1[nH]c2ccccc2c(=O)c1Br` (single isomer, unassigned) [Compound 320, 3-bromo-2-[4-tert-butyl-2-(4-fluoro-2-methoxy-phenoxy)-6-methyl-phenyl]-1H-quinolin-4-one], the IC50 lay within 500 to 2000 nM. In the case of `C=C(C)c1c(-c2c(C)cc(C(C)(C)C)cc2Oc2ccc(F)cc2OC)[nH]c2ccccc2c1=O` (single isomer, unassigned) [Compound 331, 2-[4-tert-butyl-2-(4-fluoro-2-methoxy-phenoxy)-6-methyl-phenyl]-3-isopropenyl-1H-quinolin-4-one], the IC50 fell in the range of 500 to 2000 nM. To `COc1cc(F)ccc1Oc1cc(C(C)(C)C)cc(C)c1-c1[nH]c2ccccc2c(=O)c1C` (single isomer, unassigned) [Compound 334, 2-[4-tert-butyl-2-(4-fluoro-2-methoxy-phenoxy)-6-methyl-phenyl]-3-methyl-1H-quinolin-4-one] belongs 2000 to 5000 nM. As for `O=c1cc(-c2ccccc2C2CC2)[nH]c2ccccc12` [Compound 1, 2-(2-cyclopropylphenyl)-1H-quinolin-4-one], the IC50 is no less than 5000 nM.

As to `O=c1cc(-c2ccccc2OCC2CC2)[nH]c2ccccc12` [Compound 2, 2-[2-(cyclopropylmethoxy)phenyl]-1H-quinolin-4-one], the IC50 is no less than 5000 nM. Take `O=c1cc(-c2ccccc2OCc2ccccc2)[nH]c2ccccc12` [Compound 3, 2-(2-benzyloxyphenyl)-1H-quinolin-4-one]: the IC50 was 500 to 2000 nM. For `O=c1cc(-c2ccccc2OCc2cccc(F)c2)[nH]c2ccccc12` [Compound 4, 2-[2-[(3-fluorophenyl)methoxy]phenyl]-1H-quinolin-4-one], the IC50 fell in the range of 500 to 2000 nM. In the case of `O=c1cc(-c2ccccc2OCc2ccc(F)cc2)[nH]c2ccccc12` [Compound 6, 2-[2-[(4-fluorophenyl)methoxy]phenyl]-1H-quinolin-4-one] it was 2000 to 5000 nM. With `COc1cc(F)ccc1Oc1cc(C(C)(C)C)cc(C)c1-c1nc(=O)c2ccccc2[nH]1` [Compound 28, 2-[4-tert-butyl-2-(4-fluoro-2-methoxy-phenoxy)-6-methyl-phenyl]-1H-quinazolin-4-one], the IC50 lay in the range of 500 to 2000 nM.

Turning to `COc1cc(F)ccc1Oc1cc(C(C)(C)C)cc(C)c1-c1cc(=O)c2cccc(C)c2[nH]1` [Compound 32, 2-[4-tert-butyl-2-(4-fluoro-2-methoxy-phenoxy)-6-methyl-phenyl]-8-methyl-1H-quinolin-4-one], the IC50 lay in the range of 500 to 2000 nM. For the molecule `COc1cc(F)ccc1Oc1cc(C(C)(C)C)cc(C)c1-c1cc(=O)n2ccccc2n1` [Compound 37, 2-[4-tert-butyl-2-(4-fluoro-2-methoxy-phenoxy)-6-methyl-phenyl]pyrido[1,2-a]pyrimidin-4-one], the IC50 was no less than 5000 nM. In the case of `COc1cc(F)ccc1Oc1cc(C(C)(C)C)cc(C)c1-c1nc2cccc(F)c2c(=O)[nH]1` [Compound 38, 2-[4-tert-butyl-2-(4-fluoro-2-methoxy-phenoxy)-6-methyl-phenyl]-5-fluoro-3H-quinazolin-4-one] it was 500 to 2000 nM. `O=c1cc(-c2cc(Cl)c(C(F)(F)F)nc2N2CCCC(F)(F)CC2)[nH]c2c(F)cccc12` [Compound 95, 2-[5-chloro-2-(4,4-difluoroazepan-1-yl)-6-(trifluoromethyl)-3-pyridyl]-8-fluoro-1H-quinolin-4-one]: the IC50 lay in the range of 500 to 2000 nM. For the molecule `COC1CCC(c2cc(C(C)(C)C)ncc2-c2cc(=O)c3c(C(N)=O)nccc3[nH]2)CC1` (centres unmarked) [Compound 133, 2-[6-tert-butyl-4-(4-methoxycyclohexyl)-3-pyridyl]-4-oxo-1H-1,6-naphthyridine-5-carboxamide], the IC50 was 500 to 2000 nM. For the molecule `CC(C)(C)n1cc(-c2cc(=O)c3c(C(N)=O)nccc3[nH]2)c(C2CCC(F)(F)CC2)n1` [Compound 138, 2-[1-tert-butyl-3-(4,4-difluorocyclohexyl)pyrazol-4-yl]-4-oxo-1H-1,6-naphthyridine-5-carboxamide], the IC50 was in the range of 500 to 2000 nM. With `O=c1[nH]c(-c2nc(C(F)(F)F)ccc2N2CCCC(F)(F)CC2)nc2ccccc12` [Compound 153, 2-[3-(4,4-difluoroazepan-1-yl)-6-(trifluoromethyl)-2-pyridyl]-3H-quinazolin-4-one], the IC50 is no less than 5000 nM. Take `Cc1c(Oc2ncc(C(F)(F)F)c(C)c2-c2cc(=O)c3c(NC(C)(C)CO)nccc3[nH]2)ccc(F)c1F` [Compound 170, 2-[2-(3,4-difluoro-2-methyl-phenoxy)-4-methyl-5-(trifluoromethyl)-3-pyridyl]-5-[(2-hydroxy-1,1-dimethyl-ethyl)amino]-1H-1,6-naphthyridin-4-one]: the IC50 is 500 to 2000 nM. In the case of `Cc1c(Oc2ncc(C(F)(F)F)c(C)c2-c2cc(=O)c3c(N4Cc5cn[nH]c5C4)nccc3[nH]2)ccc(F)c1F` [Compound 175, 2-[2-(3,4-difluoro-2-methyl-phenoxy)-4-methyl-5-(trifluoromethyl)-3-pyridyl]-5-(4,6-dihydro-1H-pyrrolo[3,4-c]pyrazol-5-yl)-1H-1,6-naphthyridin-4-one] it was 500 to 2000 nM; in that of `Cc1c(Oc2ncc(C(F)(F)F)c(C)c2-c2cc(=O)c3c(N4CC(O)C4)nccc3[nH]2)ccc(F)c1F` [Compound 179, 2-[2-(3,4-difluoro-2-methyl-phenoxy)-4-methyl-5-(trifluoromethyl)-3-pyridyl]-5-(3-hydroxyazetidin-1-yl)-1H-1,6-naphthyridin-4-one], 500 to 2000 nM; in that of `Cc1cc(-c2cc(=O)c3c(C)nccc3[nH]2)c(N2CCCC(F)(F)CC2)nc1C(F)(F)F` [Compound 193, 2-[2-(4,4-difluoroazepan-1-yl)-5-methyl-6-(trifluoromethyl)-3-pyridyl]-5-methyl-1H-1,6-naphthyridin-4-one], no less than 5000 nM. On to `NC(=O)c1nccc2[nH]c(-c3cc4ccccc4nc3N3CCC(F)(F)C3)cc(=O)c12` [Compound 281, 2-[2-(3,3-difluoropyrrolidin-1-yl)-3-quinolyl]-4-oxo-1H-1,6-naphthyridine-5-carboxamide], for which the IC50 fell in the range of 500 to 2000 nM. Regarding `N#Cc1nccc2[nH]c(-c3cc4ccccc4nc3N3CCC(F)(F)C3)cc(=O)c12` [Compound 282, 2-[2-(3,3-difluoropyrrolidin-1-yl)-3-quinolyl]-4-oxo-1H-1,6-naphthyridine-5-carbonitrile], the IC50 lay within 500 to 2000 nM. In the case of `CCN(c1nc2ccccc2cc1-c1cc(=O)c2c(C(N)=O)nccc2[nH]1)C1CCC1` [Compound 303, 2-[2-[cyclobutyl(ethyl)amino]-3-quinolyl]-4-oxo-1H-1,6-naphthyridine-5-carboxamide] it was no less than 5000 nM; in that of `O=c1cc(-c2cc(C(F)(F)F)ncc2[C@H]2CC[C@H](C(F)(F)F)CC2)[nH]c2ccncc12` [Compound 305, 2-[2-(trifluoromethyl)-5-[4-(trifluoromethyl)cyclohexyl]-4-pyridyl]-1H-1,6-naphthyridin-4-one], no less than 5000 nM. As to `Cc1c(C(F)(F)F)cnc(Oc2ccc(F)c(F)c2CO)c1-c1cc(=O)c2c(C(N)=O)nccc2[nH]1` [Compound 346, 2-[2-[3,4-difluoro-2-(hydroxymethyl)phenoxy]-4-methyl-5-(trifluoromethyl)-3-pyridyl]-4-oxo-1H-1,6-naphthyridine-5-carboxamide], the IC50 lay within 500 to 2000 nM.

Values taken from patent US12503439B2, “Heteroaryl compounds for the treatment of pain” (VERTEX PHARMACEUTICALS INCORPORATED, priority 2022, dated 2025).
